Data from patent US8569302B2, “Inhibitors of flaviviridae viruses” (Gilead Sciences, Inc., priority 2009, dated 2013).

Tested on: human hepatoma Huh-7 cell line harboring a HCV replicon
Test: HCV replicon assay (inhibition of viral replication, luciferase readout)
Type: cell-based
Conditions: Hepatitis C virus, 72 h, Huh-7 HCV replicon cells, 3 days incubation
Description: The anti-HCV activity of the compounds of this invention was tested in a human hepatoma Huh-7 cell line harboring a HCV replicon. The assay comprised the following steps:
Step 1: Compound Preparation and Serial Dilution.
Serial dilution was performed in 100% DMSO in a 384-well plate. A solution containing a compound at 225-fold concentration of the starting final serial dilution concentration was prepared in 100% DMSO and 15 μL added to the pre-specified wells in column 3 or 13 of a polypropylene 384-well plate. The rest of the 384-well plate was filled with 10 μL 100% DMSO except for columns 23 and 24, where 10 μL of 500 μM a HCV protease inhibitor (ITMN-191) in 100% DMSO was added. The HCV protease inhibitor was used a control of 100% inhibition of HCV replication. The plate was then placed on a Biomek FX Workstation to start the serial dilution. The serial dilution was performed for ten cycles of 3-fold dilution from column 3 to 12 or from column 13 to 22.
Step 2: Cell Culture Plate Preparation and Compound Addition
To each well of a black polypropylene 384-well plate, 90 μL of cell media containing 1600 suspended Huh-7 HCV replicon cells was added with a Biotek uFlow Workstation. A volume of 0.4 μL of the compound solution was transferred from the serial dilution plate to the cell culture plate on a Biomek FX Workstation. The DMSO concentration in the final assay condition was 0.44%. The plates were incubated for 3 days at 37° C. with 5% CO2 and 85% humidity.
Step 3: Detection of Cytotoxicity and Inhibition of Viral Replication
a) Assessment of cytotoxicity: The media in the 384-well cell culture plate was aspirated with a Biotek EL405 plate-washer. A volume of 50 μL of a solution containing 400 nM Calcein AM in 100% PBS was added to each well of the plate with a Biotek uFlow Workstation. The plate was incubated for 30 minutes at room temperature before the fluorescence signal ([…]) was measured with a Perkin Elmer Envision Plate Reader.
b) Assessment of inhibition of viral replication: The calcein-PBS solution in the 384-well cell culture plate was aspirated with a Biotek EL405 plate-washer. A volume of 20 μL of Dual-Glo luciferase buffer (Promega, Dual-Glo Luciferase Assay Reagent, cat. #E298B) was added to each well of the plate with a Biotek uFlow Workstation. The plate was incubated for 10 minutes at room temperature. A volume of 20 μL of a solution containing 1:100 mixture of Dual-Glo Stop & Glo substrate (Promega, Dual-Glo Luciferase Assay Reagent, cat. #E313B) and Dual-Glo Stop & Glo buffer (Promega, Dual-Glo Luciferase Assay Reagent, cat. #E314B) was then added to each well of the plate with a Biotek uFlow Workstation. The plate was incubated at room temperature for 10 minutes before the luminescence signal was measured with a Perkin Elmer Envision Plate Reader.
The percent cytotoxicity was determined by calcein AM conversion to fluorescent product. The average fluorescent signal from the DMSO control wells was defined as 100% nontoxic. The individual fluorescent signal from testing compound treated well was divided by the average signal from DMSO control wells and then multiplied by 100% to get the percent viability. The percent anti-HCV replication activity was determined by the luminescence signal from the testing well compared to DMSO control wells. The background signal was determined by the average luminescence signal from the HCV protease inhibitor treated wells and was subtracted from the signal from the testing wells as well as the DMSO control wells. Following 3-fold serial dilutions, the EC50 and CC50 values were calculated by fitting % inhibition at each concentration to the following equation: % inhibition=100%/[EC50/[I])^b+1]
Where b is Hill's coefficient. See, for reference, Hill, A. V., The Possible Effects of the Aggregation of the Molecules of Hæmoglobin on its Dissociation Curves, J. Physiol. 40: iv-vii. (1910). […]

Going from `C[C@@H](CCOc1cc(CN(C)C)ccn1)N(c1cc(C#CC(C)(C)C)sc1C(=O)O)C(=O)[C@H]1CC[C@H](C)CC1` [Compound 61, 3-[[3-(4-dimethylaminomethyl-pyridin-2-yloxy)-1-(S)-methyl-propyl]-(trans-4-methyl-cyclohexanecarbonyl)-amino]-5-(3,3-dimethyl-but-1-ynyl)-thiophene-2-carboxylic acid] to `C[C@@H](CCOc1cc(CN2CCCC2)ccn1)N(c1cc(C#CC(C)(C)C)sc1C(=O)O)C(=O)[C@H]1CC[C@H](C)CC1` [Compound 62, 5-(3,3-dimethyl-but-1-ynyl)-3-[(trans-4-methyl-cyclohexanecarbonyl)-[1-(S)-methyl-3-(4-pyrrolidin-1-yl-methyl-pyridin-2-yloxy)-propyl]-amino]-thiophene-2-carboxylic acid], the inhibition at 2 µM rises from 99.9% to 100%.

`C[C@@H](CCOc1ccc(O)nn1)N(c1cc(C#CC(C)(C)C)sc1C(=O)O)C(=O)[C@H]1CC[C@H](C)CC1` [Compound 63, 5-(3,3-dimethyl-but-1-ynyl)-3-[[3-(6-hydroxy-pyridazin-3-yloxy)-1-(S)-methyl-propyl]-(trans-4-methyl-cyclohexanecarbonyl)-amino]-thiophene-2-carboxylic acid] and `Cc1nnc(S[C@H]2CC[C@H](N(c3cc(C#CC(C)(C)C)sc3C(=O)O)C(=O)[C@H]3CC[C@H](C)CC3)CC2)o1` [Compound 98, 5-(3,3-Dimethylbut-1-ynyl)-3-(4-methyl-N-(4-(5-methyl-1,3,4-oxadiazol-2-ylthio)cyclohexyl)cyclohexanecarboxamido)thiophene-2-carboxylic acid] are the same in inhibition at 2 µM: 100% for the first, 100% for the second.

First: Cn1cnnc1S[C@H]1CC[C@H](N(c2cc(C#CC(C)(C)C)sc2C(=O)O)C(=O)[C@H]2CC[C@H](C)CC2)CC1 [Compound 84, 5-(3,3-dimethylbut-1-ynyl)-3-(4-methyl-N-(4-(4-methyl-4H-1,2,4-triazol-3-ylthio)cyclohexyl)cyclohexanecarboxamido)thiophene-2-carboxylic acid]
Second: Cn1cnnc1S[C@H]1CC[C@@H](N(c2cc(C#CC(C)(C)C)sc2C(=O)O)C(=O)[C@H]2CC[C@H](C)CC2)CC1 [Compound 85, 5-(3,3-dimethylbut-1-ynyl)-3-(4-methyl-N-(4-(4-methyl-4H-1,2,4-triazol-3-ylthio)cyclohexyl)cyclohexanecarboxamido)thiophene-2-carboxylic]
The inhibition at 2 µM of the first is higher: 99.9% for the first, 99.6% for the second.

Compared with `CC(C)(C)C#Cc1cc(N(C(=O)[C@H]2CC[C@H](C)CC2)[C@H]2CC[C@H](Sc3nncs3)CC2)c(C(=O)O)s1` [Compound 86, 3-(N-(4-(1,3,4-Thiadiazol-2-ylthio)cyclohexyl)-4-methylcyclohexanecarboxamido)-5-(3,3-dimethylbut-1-ynyl)thiophene-2-carboxylic acid], `CC(C)(C)C#Cc1cc(N(C(=O)[C@H]2CC[C@H](C)CC2)[C@H]2CC[C@H](Sc3cccs3)CC2)c(C(=O)O)s1` [Compound 93, 5-(3,3-Dimethylbut-1-ynyl)-3-(4-methyl-N-(4-(thiophen-2-ylthio)cyclohexyl)cyclohexanecarboxamido)thiophene-2-carboxylic acid] is lower in inhibition at 2 µM: 100% for the first, 98.1% for the second.

Compared with `CC(C)(C)C#Cc1cc(N(C(=O)[C@H]2CC[C@H](C)CC2)[C@H]2CC[C@H](Sc3ccncc3)CC2)c(C(=O)O)s1` [Compound 87, 5-(3,3-Dimethylbut-1-ynyl)-3-(4-methyl-N-(4-(pyridin-4-ylthio)cyclohexyl)cyclohexanecarboxamido)thiophene-2-carboxylic acid], `CC(C)(C)C#Cc1cc(N(C(=O)[C@H]2CC[C@H](C)CC2)[C@H]2CC[C@H](Sc3ccccn3)CC2)c(C(=O)O)s1` [Compound 99, 5-(3,3-Dimethylbut-1-ynyl)-3-(4-methyl-N-(4-(pyridin-2-ylthio)cyclohexyl)cyclohexanecarboxamido)thiophene-2-carboxylic acid] is lower in inhibition at 2 µM: 99.5% for the first, 97.7% for the second.

First: CC(C)(C)C#Cc1cc(N(C(=O)[C@H]2CC[C@H](C)CC2)[C@H]2CC[C@H](Sc3cccc[n+]3[O-])CC2)c(C(=O)O)s1 [Compound 88]
Second: CC(C)(C)C#Cc1cc(N(C(=O)[C@H]2CC[C@H](C)CC2)[C@H]2CC[C@H](Sc3nnc4ccccn34)CC2)c(C(=O)O)s1 [Compound 92, 3-(N-(4-([1,2,4]-Triazolo[4,3-a]pyridin-3-ylthio)cyclohexyl)-4-methylcyclohexanecarboxamido)-5-(3,3-dimethylbut-1-ynyl)thiophene-2-carboxylic acid]
The inhibition at 2 µM of the first is lower: 98.5% for the first, 100% for the second.

Going from `CCn1ccnc1S[C@H]1CC[C@H](N(c2cc(C#CC(C)(C)C)sc2C(=O)O)C(=O)[C@H]2CC[C@H](C)CC2)CC1` [Compound 89, 5-(3,3-Dimethylbut-1-ynyl)-3-(N-(4-(1-ethyl-1H-imidazol-2-ylthio)cyclohexyl)-4-methylcyclohexanecarboxamido)thiophene-2-carboxylic acid] to `CC(C)(C)C#Cc1cc(N(C(=O)[C@H]2CC[C@H](C)CC2)[C@H]2CC[C@H](Sc3ncc[nH]3)CC2)c(C(=O)O)s1` [Compound 94, 3-(N-(4-(1H-Imidazol-2-ylthio)cyclohexyl)-4-methylcyclohexanecarboxamido)-5-(3,3-dimethylbut-1-ynyl)thiophene-2-carboxylic acid], the inhibition at 2 µM rises from 99.4% to 99.9%.

`CC(C)(C)C#Cc1cc(N(C(=O)[C@H]2CC[C@H](C)CC2)[C@H]2CC[C@H](Sc3nncn3C3CC3)CC2)c(C(=O)O)s1` [Compound 90, 3-(N-(4-(4-Cyclopropyl-4H-1,2,4-triazol-3-ylthio)cyclohexyl)-4-methylcyclohexanecarboxamido)-5-(3,3-dimethylbut-1-ynyl)thiophene-2-carboxylic acid] and `Cn1nnnc1S[C@H]1CC[C@H](N(c2cc(C#CC(C)(C)C)sc2C(=O)O)C(=O)[C@H]2CC[C@H](C)CC2)CC1` [Compound 101, 5-(3,3-Dimethylbut-1-ynyl)-3-(4-methyl-N-(4-(1-methyl-1H-tetrazol-5-ylthio)cyclohexyl)cyclohexanecarboxamido)thiophene-2-carboxylic acid] are the same in inhibition at 2 µM: 100% for the first, 100% for the second.

First: CC(C)(C)C#Cc1cc(N(C(=O)[C@H]2CC[C@H](C)CC2)[C@H]2CC[C@H](Sc3ccc4ccccc4n3)CC2)c(C(=O)O)s1 [Compound 91, 5-(3,3-Dimethylbut-1-ynyl)-3-(4-methyl-N-(4-(quinolin-2-ylthio)cyclohexyl)cyclohexanecarboxamido)thiophene-2-carboxylic acid]
Second: CC(C)(C)C#Cc1cc(N(C(=O)[C@H]2CC[C@H](C)CC2)[C@H]2CC[C@H](Sc3ncccn3)CC2)c(C(=O)O)s1 [Compound 100, 5-(3,3-Dimethylbut-1-ynyl)-3-(4-methyl-N-(4-(pyrimidin-2-ylthio)cyclohexyl)cyclohexanecarboxamido)thiophene-2-carboxylic acid]
The inhibition at 2 µM of the first is lower: 99.8% for the first, 99.9% for the second.

`CC(C)(C)C#Cc1cc(N(C(=O)[C@H]2CC[C@H](C)CC2)[C@H]2CC[C@H](Sc3nc(N)n[nH]3)CC2)c(C(=O)O)s1` [Compound 95, 3-(N-(4-(5-Amino-2H-1,2,4-triazol-3-ylthio)cyclohexyl)-4-methylcyclohexanecarboxamido)-5-(3,3-dimethylbut-1-ynyl)thiophene-2-carboxylic acid] and `CC(C)(C)C#Cc1cc(N(C(=O)[C@H]2CC[C@H](C)CC2)[C@H]2CC[C@H](Sc3nc[nH]n3)CC2)c(C(=O)O)s1` [Compound 97, 3-(N-(4-(1H-1,2,4-Triazol-3-ylthio)cyclohexyl)-4-methylcyclohexanecarboxamido)-5-(3,3-dimethylbut-1-ynyl)thiophene-2-carboxylic acid] are the same in inhibition at 2 µM: 99.9% for the first, 99.9% for the second.
